The values that follow are results of earlier work, collected in US12502339B2, “Foam compositions” (The Procter & Gamble Company, priority 2021, dated 2025).

For the series the following is noted: in water.

Regarding `[N-]=[N+]=O` [Nitrous oxide], the “Water solubility at 20° C. (weight percent)” value was 0.12 weight percent. With `COC` [Dimethyl ether], the “Water solubility at 20° C. (weight percent)” value is recorded as 7% weight percent. Regarding `[He]` [Helium], the “Water solubility at 20° C. (weight percent)” value is given as below 0.01 weight percent. As for `CC(C)C` [Isobutane], the “Water solubility at 20° C. (weight percent)” value is listed as below 0.01% weight percent.

As to `O=C=O` [Carbon dioxide], the “Water solubility at 20° C. (weight percent)” value was 0.8% weight percent. With `CCCC` [Butane], the “Water solubility at 20° C. (weight percent)” value is listed as below 0.01% weight percent.
